pIC50: −log10 of the molar value. Where a name gives a salt, the structure may show the parent alone.
Legend:
[1] = system: spontaneously breathing rats; test: Minute ventilation (MV) and cardiovascular parameters in naive rats; assay type: in vivo, rat; set-up: unit not given here; details: 1 mpk IV; 15/65/20; pH 5
Description: All surgical procedures were performed under anesthesia induced by 2% isoflurane in compressed medical grade air. With rats in supine position, the right femoral vein was catheterized using polyethylene tubing (PE-50). This catheter was used for fluid and drug administration. Simultaneously, the right femoral artery was also catheterized for monitoring blood pressure and heart rate. In order to measure the respiratory parameters in spontaneously breathing rats, trachea was intubated using 13 gauge tracheal tube (2.5 mm ID, Instech Solomon, Pa.).
After establishing a stable base-line at 1.5% isoflurane, compounds (typically at a dose of 1 mpk) were administered IV, and ventilatory parameters were generated from spontaneously breathing rats, along with cardiovascular output (mean arterial pressure (MAP) and heart rate). Maximum peak minute ventilatory (MV) responses (MPR), along with changes in minute ventilation versus baseline (AMV) were obtained as shown in the tables below.

[2] = system: spontaneously breathing rats; test: Respiratory rate, tidal volume and minute volume in urethane-anesthetized rat; assay type: in vivo; details: IV; compared to vehicle
Description: Adult male Sprague Dawley rats (250-350 g body weight; Harlan, Indianapolis, Ind., USA) were anesthetized with isoflurane in oxygen. The femoral vein was cannulated to administer compounds. Body temperature was maintained between 36.0 and 37.2° C. throughout the experiment. The cervical portion of the trachea was cannulated and attached to a rat-sized pneumotachometer for measuring tracheal airflow. After surgical instrumentation was complete, isoflurane was slowly discontinued, while urethane (1.8 g/kg) was administered intravenously over 10-15 minutes to maintain anesthesia. Rats were permitted to breathe spontaneously and inspire 100% oxygen. At least 30-45 minutes after discontinuing isoflurane, baseline tracheal airflow was recorded for 20-30 minutes prior to compound administration. Vehicle and test compound were administered intravenously over 15-25 seconds and at a constant volume (1 mL/kg). At least 15-min elapsed between each dose of compound administered. Tracheal airflow was recorded continuously before, during and after compound administration. Tidal volume was derived from the integral of airflow, and respiratory rate was derived from the number of inspiratory cycles per minute. Minute volume was calculated as the product of tidal volume and respiratory rate (FIG. 32).

rat KCNK3/TASK-1 = biological target: T1, rat KCNK3/TASK-1 (Rattus norvegicus, UniProt O54912); test: Thallium flux through rat TASK-1 (KCNK3-CHO cells); assay type: cell-based; details: Tl+ flux; 3 nM to 30 μM; read-out: rTASK-1 IC50
T1 construct: expressed in transfected cells; host or cells: CHO cells (tetracycline-inducible)
Description: (§1) CHO cells expressing recombinant tetracycline-inducible rat KCNK3/TASK-1 (KCNK3-CHO cells) were plated in poly-D-lysine coated 384-well plates at a density of 6,000 cells/well (50 μl/well of 120,000 cells/mL) and allowed to incubate for 72 hrs in the presence of 5% CO2 and 1 μg/mL tetracycline at 30° C. HEK cells expressing recombinant tetracycline-inducible human KCNK9/TASK-3 (KCNK9-HEK cells) were plated at a density of 15,000 cells per well (50 μl/well, 300,000 cells/mL) and incubated overnight at 37° C. and 5% CO2 in the presence of 1 μg/mL tetracycline.
(§2) Drug plates were generated from 10 mM 100% DMSO mother plates. Compounds were transferred to 384-well drug plates and titrated with sequential 1:3 dilutions in 100% DMSO for a total of 9 dilutions. A dilution plate is made by taking 2.4 μl from the mother plate and adding to […] of assay buffer for a 12% DMSO dilution plate. From this dilution plate, a final daughter plate is generated by taking 1 μA of the dilution plate and adding to 40 μA of assay buffer for a final DMSO concentration of 0.3%. Each compound was evaluated in duplicate and the concentration range evaluated was 3 nM to 30 μM.
(§3) When thallium was added to extracellular solution with a stimulus to open channels, Tl^+ flowed down its concentration gradient into the cells and channel activity was detected with an indicator dye, FluxOR™, that increased in cytosolic fluorescence. The FluxOR™ indicator dye was loaded into cells as a membrane permeable acetoxymethyl ester. On the day of each assay, FluxOR™ assay buffer was made fresh from Hank's Balanced Saline Solution (HBSS) buffered with 20 mM HEPES and pH adjusted to 7.4 with NaOH. Dye loading solution was prepared per manufacturer's instructions, and 25 μl of dye solution applied to each well with a multidropper after plating medium was removed manually from cells. Dye was allowed to load for 90 minutes at room temperature in the dark.
(§4) After the 90 min dye loading incubation and subsequent manual dye removal, 24 μl of the drug daughter plate was transfer to cell plates by a cybi-well system and then incubated at room temperature for 20 minutes to allow for equilibration within wells. Stimulation buffer was prepared from 5× chloride-free buffer, thallium, and potassium sulfate containing 5 times the desired final assay concentration of 10 mM K^+ 2.8 mM Tl^+. Cell plates were then transferred to an FDSS 6000 kinetic imaging plate reader (Hamamatsu). Fluorescence at 525 nm (excitation 488 nm) was measured for 10 seconds at 1 Hz to establish baseline for the entire plate. After baseline was established, 6 μl/well of stimulation buffer was added and fluorescence signal recorded for another 140 seconds.
(§5) From the fluorescence signals in the absence and presence of Galleon compounds, Inhibitory concentration curves were plotted and IC50 values were estimated using a curve fitting algorithm.

human KCNK9/TASK-3 = biological target: T2, human KCNK9/TASK-3 (Homo sapiens, UniProt Q9NPC2); test: Thallium flux through human TASK-3 (KCNK9-HEK cells); assay type: cell-based; details: Tl+ flux; 3 nM to 30 μM; read-out: hTASK-3 IC50
T2 construct: expressed in transfected cells; host or cells: HEK cells (tetracycline-inducible)
Description: as §1, §2, §3, §4, §5

[3] = Solubility of process impurity (observation); assay type: physicochemical
Description: Under certain conditions where the compounds of the present invention and their synthetic intermediates are exposed to acidic or alkaline aqueous environments, the bond between the aromatic heterocycle and the ring substituents may be susceptible to hydrolytic cleavage. For example, in the intermediates to compounds of formula (II-a), a halo substituent in the 2 position (Schemes 3 and 4) may be hydrolytically replaced with a hydroxyl group to yield N-(4,6-Bis(n-propylamino)-1,3,5-triazin-2-ol (CLXXVIII). Similarly, the amine substituents of compounds of formula (II-a) may be displaced by a hydroxyl group. Without wishing to be bound by theory, a series of chemical changes may occur to enable this substitution, such as a prior oxidation of the appended amine side chain, with hydrolytic replacement by hydroxyl as the final transformation. As a specific non-limiting example, the N,O-dimethylhydroxylamino substituent of N-(4,6-Bis-n-propylamino-[1,3,5]triazin-2-yl)-N,O-dimethyl-hydroxylamine (XXXV) may be partially displaced by hydroxyl during processing in the presence of water, forming (CLXXVIII) as a process impurity. […] It was unexpectedly observed that even at elevated temperatures (CLXXVIII) is very insoluble relative to the active ingredient. Thus, trace quantities of this compound in the API can be problematic in liquid formulations. […]

T2 sequence (Q9NPC2 whole entry): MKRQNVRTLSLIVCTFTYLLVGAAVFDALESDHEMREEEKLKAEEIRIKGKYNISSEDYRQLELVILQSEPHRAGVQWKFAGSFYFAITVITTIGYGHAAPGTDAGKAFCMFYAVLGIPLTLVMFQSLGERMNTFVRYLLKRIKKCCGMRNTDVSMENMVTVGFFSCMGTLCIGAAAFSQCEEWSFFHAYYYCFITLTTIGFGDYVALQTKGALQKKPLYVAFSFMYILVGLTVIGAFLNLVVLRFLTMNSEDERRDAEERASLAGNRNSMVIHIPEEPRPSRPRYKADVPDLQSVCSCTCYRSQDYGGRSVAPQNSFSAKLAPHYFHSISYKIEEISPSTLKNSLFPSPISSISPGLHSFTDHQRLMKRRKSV
T1 sequence (O54912 whole entry): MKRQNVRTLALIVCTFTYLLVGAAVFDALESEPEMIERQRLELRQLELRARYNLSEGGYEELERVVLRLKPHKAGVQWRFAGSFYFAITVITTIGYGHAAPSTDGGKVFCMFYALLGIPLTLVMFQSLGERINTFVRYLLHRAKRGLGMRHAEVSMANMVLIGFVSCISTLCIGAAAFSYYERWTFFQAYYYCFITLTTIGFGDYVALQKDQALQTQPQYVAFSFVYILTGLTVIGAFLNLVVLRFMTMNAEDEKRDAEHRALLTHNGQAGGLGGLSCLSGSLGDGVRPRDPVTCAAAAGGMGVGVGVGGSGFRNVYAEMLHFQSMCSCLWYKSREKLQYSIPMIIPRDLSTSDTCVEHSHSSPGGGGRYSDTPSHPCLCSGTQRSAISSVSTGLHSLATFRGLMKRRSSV

SMILES	respiratory rate, tidal volume and minute volume [2]	pIC50 (rat KCNK3/TASK-1)	pIC50 (human KCNK9/TASK-3)	other results
CCCNc1cc(N(C)OC)nc(NCCC)n1 (as salt: hydrogen sulfate) [CXXI, 2,6-Bis-(N-n-propylamino)-[1,3]pyrimidin-4-yl)-N,O-dimethyl-hydroxylamine hydrogen sulfate]	–	–	–	melting point: 123 to 126 °C
CCCNc1nc(NC)nc(NCCC)n1 [CLXXII, N-(2,4-Bis-n-propylamino)-N-(6-methylamino)-[1,3,5]triazine]	increased both respiratory rate and tidal volume, and their product minute volume	8.00	< 4.52	MV MPR [1]: 145; MV ΔMV [1]: 106
CCCNc1nc(O)nc(NCCC)n1 [CLXXVIII]	–	–	–	solubility in aqueous environments [3]: sparingly soluble; solubility in most organic solvents [3]: very low solubility
CCCNc1nc(NCCC)nc(NOC)n1.Cl [XLII, N-(4,6-Bis-n-propylamino-[1,3,5]triazin-2-yl)-O-methyl-hydroxylamine hydrochloride]	increased both respiratory rate and tidal volume, and their product minute volume	7.30	< 4.52	–
